Assay results as given in patent US8642774B2, “Compounds” (Boehringer Ingelheim International GmbH, priority 2011, dated 2014).

Biological target: T1, human recombinant mGluR5 (Homo sapiens, UniProt P41594)
T1 construct: expressed in transfected cells; host or cells: HEK 293 cell line, cultured with tetracycline, hygromycin and geneticin; tetracycline is withdrawn 3-7 days before the assay
Assay: positive modulation of mGluR5, calcium based FLIPR assay
Type: cell-based
Conditions: EC50 of the modulation; HEK 293 cell line expressing human recombinant mGluR5; peak height of Ca fluorescence signal after glutamate at approx. 5% basal stimulation; read-out: EC50
Summary of the method: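 HEK 293 cells expressing human recombinant mGluR5, tetracycline-free before assay, loaded with Calcium-4 dye in Ringer solution pH 7.4. Compounds (1% DMSO final) added for 5 min, then glutamate at about 5% of maximal effect; FLIPR peak Ca signal scaled between 1% DMSO (100%) and 10 μM CDPPB (200%) controls, EC50 by nonlinear regression.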

T1 sequence (P41594 21-1212): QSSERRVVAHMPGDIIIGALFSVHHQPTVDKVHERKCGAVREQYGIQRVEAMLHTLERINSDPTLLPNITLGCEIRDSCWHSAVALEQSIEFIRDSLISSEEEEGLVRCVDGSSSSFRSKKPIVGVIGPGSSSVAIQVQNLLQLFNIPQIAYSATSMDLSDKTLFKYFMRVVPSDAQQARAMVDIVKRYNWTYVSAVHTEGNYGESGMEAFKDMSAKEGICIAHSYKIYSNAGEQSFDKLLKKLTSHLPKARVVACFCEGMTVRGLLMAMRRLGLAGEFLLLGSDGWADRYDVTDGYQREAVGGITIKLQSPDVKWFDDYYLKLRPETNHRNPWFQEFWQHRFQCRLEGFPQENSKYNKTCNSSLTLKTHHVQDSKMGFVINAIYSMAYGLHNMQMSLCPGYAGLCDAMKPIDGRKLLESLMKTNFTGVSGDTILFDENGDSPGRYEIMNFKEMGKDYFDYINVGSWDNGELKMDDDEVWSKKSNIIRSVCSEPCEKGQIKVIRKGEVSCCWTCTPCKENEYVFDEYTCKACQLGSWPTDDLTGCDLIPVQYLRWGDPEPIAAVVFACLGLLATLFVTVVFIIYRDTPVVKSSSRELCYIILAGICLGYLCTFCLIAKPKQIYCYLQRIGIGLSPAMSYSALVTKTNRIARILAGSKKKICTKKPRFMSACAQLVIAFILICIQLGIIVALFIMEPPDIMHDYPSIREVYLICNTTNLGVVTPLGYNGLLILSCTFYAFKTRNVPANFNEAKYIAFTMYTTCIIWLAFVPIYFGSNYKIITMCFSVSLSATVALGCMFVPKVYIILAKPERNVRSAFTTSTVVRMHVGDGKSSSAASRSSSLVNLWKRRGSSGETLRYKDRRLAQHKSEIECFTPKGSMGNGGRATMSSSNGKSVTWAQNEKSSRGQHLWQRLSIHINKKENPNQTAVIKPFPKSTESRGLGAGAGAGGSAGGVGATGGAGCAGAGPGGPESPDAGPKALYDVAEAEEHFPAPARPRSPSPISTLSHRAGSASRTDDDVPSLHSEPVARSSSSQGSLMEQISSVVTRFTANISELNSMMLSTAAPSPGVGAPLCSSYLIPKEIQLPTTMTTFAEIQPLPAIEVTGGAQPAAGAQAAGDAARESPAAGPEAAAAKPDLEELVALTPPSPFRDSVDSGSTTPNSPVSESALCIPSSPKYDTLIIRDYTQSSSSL

Q: `Cc1nnc(N2CCN(C(=O)Cn3nc(-c4ccc(OC(F)F)cc4)nc3-c3ccccc3)CC2)o1` [Example 7.03.134] was tested. Which EC50 did it give?
A: Its EC50 is 0.129 µM.

Q: For `Cc1nc(N2CCN(C(=O)Cn3nc(-c4ccc(OC(F)F)cc4)nc3-c3ccccc3)CC2)no1` [Example 7.03.135], which EC50 is on record?
A: Its EC50 is 0.019 µM.

Q: For `O=C(Cn1nc(-c2ccc(F)cc2)nc1-c1ccc(F)cc1)N1CCN(c2nccc3sccc23)CC1` [Example 07.03.136.], which EC50 is on record?
A: Its EC50 is 0.498 µM.

Q: `O=C(Cn1nc(-c2ccc(F)cc2)nc1-c1ccc(F)cc1)N1CCN(c2nccc3occc23)CC1` [Example 07.03.137.] was tested. Which EC50 did it give?
A: Its EC50 is 0.339 µM.

Q: For `O=C(Cn1nc(-c2ccc(F)cc2)nc1-c1ccc(F)cc1)N1CCc2nc(N3CCCC3)sc2CC1` [Example 7.04.01., 2-[3,5-bis-(4-Fluoro-phenyl)-(1,2,4)triazol-1-yl)-1-(2-pyrrolidin-1-yl-4,5,7,8-tetrahydro-thiazolo[4,5-d]azepin-6-yl)-ethanone], which EC50 is on record?
A: The EC50 was 0.678 µM.

Q: Which EC50 does the source give for `CNc1nc2c(s1)CCN(C(=O)Cn1nc(-c3ccc(F)cc3)nc1-c1ccc(F)cc1)CC2` [Example 7.04.02.] here?
A: Its EC50 is 0.132 µM.

Q: How did the EC50 turn out when `CN(C)c1nc2c(s1)CCN(C(=O)Cn1nc(-c3ccc(F)cc3)nc1-c1ccc(F)cc1)CC2` [Example 7.04.03.] was run?
A: Its EC50 is 0.346 µM.

Q: Which EC50 does the source give for `O=C(Cn1nc(-c2ccc(F)cc2)nc1-c1ccc(F)cc1)N1CCc2nc(N3CCCCC3)sc2CC1` [Example 7.04.04.] here?
A: Its EC50 is 0.561 µM.

Q: How did the EC50 turn out when `O=C(Cn1nc(-c2ccc(F)cc2)nc1-c1ccc(F)cc1)N1CCc2nc(N3CCOCC3)sc2CC1` [Example 7.04.05.] was run?
A: The EC50 was 1.66 µM.

Q: For `O=C(Cn1nc(-c2ccc(F)cc2)nc1-c1ccc(F)cc1)N1CCN(C2=NCCCS2)CC1` [Example 7.05.01., 2-(3,5-bis-(4-Fluoro-phenyl)-(1,2,4)triazol-1-yl]-1-[4-(5,6-dihydro-4H-(1,3)thiazin-2-yl)-piperazin-1-yl]-ethanone], which EC50 is on record?
A: Its EC50 is 1.71 µM.

Q: For `O=C(Cn1nc(-c2ccc(F)cc2)nc1-c1ccc(F)cc1)N1CCc2ncsc2CC1` [Example 7.06.01., 2-(3,5-bis-(4-Fluoro-phenyl)-(1,2,4)triazol-1-yl]-1-(4,5,7,8-tetrahydro-thiazolo[4,5-d]azepin-6-yl)-ethanone], which EC50 is on record?
A: Its EC50 is 1.13 µM.
